The SangsterLogP compilation

Experiment: method code SF-HPLC, from Li, N. Y., Li, Y., & Gorrod, J. W. (1992). Determination of partition coefficients and ionisation constants of(S)(-)-nicotine and certain metabolites. Med. Sci. Res., 20(23)901-902.

logD (pH 7.4) | logD (pH 12.0) | Compound | also measured
0.07 |  | CN1C(=O)CC[C@H]1c1cccnc1 | 
 |  | O=C(O)CCC(=O)c1cccnc1 | logD (pH 2.0): -1.06
 | -0.57 | CN1C(=O)CCC1(O)c1cccnc1 (centres undefined) | 
 |  | O=C(O)Cc1cccnc1 | logD (pH 2.0): -2.42
-0.13 |  | CNC(=O)CCC(=O)c1cccnc1 | 
-1.22 |  | CN1C(=O)C(O)CC1c1cccnc1 (centres undefined) | 
-2.54 |  | CN1C(=O)CCC1c1ccc[n+]([O-])c1 (centres undefined) | 
 | -1.01 | O=C1CCC(c2ccc[n+]([O-])c2)N1 (centres undefined) | 

Compound | logD (pH 7.4) | logD (pH 12.0) | also measured
O=C1CC[C@@H](c2cccnc2)N1 |  | -0.4 | 
